Results on six compounds are retold here after patent publication US20100190817A1, “LARGE SUBSTITUENT, NON-PHENOLIC AMINE OPIOIDS” (RENSSELAER POLYTECHNIC INSTITUTE, priority 2008, published 2010).

The target in one experiment is human μ opioid receptor (Homo sapiens, UniProt P35372). Briefly: Opioid receptor binding assay, [3H]DAMGO (μ).
Another experiment deals with human κ opioid receptor (Homo sapiens, UniProt P41145). Briefly: Opioid receptor binding assay, [3H]U69,593 (κ).
A further experiment concerns the target human δ opioid receptor (Homo sapiens, UniProt P41143). As to the kind of experiment: Opioid receptor binding assay, [3H]naltrindole (δ).
For another experiment, the system named is mice. As to conditions: cited from earlier work; for duration of action (antinociception): 1 mg/kg ip in mice.
For another experiment, the system named is guinea pig μ receptors. As to conditions: cited from earlier work.
In a further experiment the test system is κ opioid receptors. As to conditions: cited from earlier work.

Chain of human μ opioid receptor (P35372 whole entry): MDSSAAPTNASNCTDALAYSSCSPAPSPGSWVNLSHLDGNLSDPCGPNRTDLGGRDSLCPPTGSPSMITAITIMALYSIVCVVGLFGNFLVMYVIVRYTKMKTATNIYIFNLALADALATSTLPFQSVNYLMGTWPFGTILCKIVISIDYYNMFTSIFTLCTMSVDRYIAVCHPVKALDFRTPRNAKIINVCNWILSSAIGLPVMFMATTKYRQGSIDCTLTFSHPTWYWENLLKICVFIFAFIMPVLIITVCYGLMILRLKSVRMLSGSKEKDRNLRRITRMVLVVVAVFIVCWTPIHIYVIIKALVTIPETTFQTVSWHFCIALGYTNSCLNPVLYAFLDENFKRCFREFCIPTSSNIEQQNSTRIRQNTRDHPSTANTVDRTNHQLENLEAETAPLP
Chain of human κ opioid receptor (P41145 whole entry): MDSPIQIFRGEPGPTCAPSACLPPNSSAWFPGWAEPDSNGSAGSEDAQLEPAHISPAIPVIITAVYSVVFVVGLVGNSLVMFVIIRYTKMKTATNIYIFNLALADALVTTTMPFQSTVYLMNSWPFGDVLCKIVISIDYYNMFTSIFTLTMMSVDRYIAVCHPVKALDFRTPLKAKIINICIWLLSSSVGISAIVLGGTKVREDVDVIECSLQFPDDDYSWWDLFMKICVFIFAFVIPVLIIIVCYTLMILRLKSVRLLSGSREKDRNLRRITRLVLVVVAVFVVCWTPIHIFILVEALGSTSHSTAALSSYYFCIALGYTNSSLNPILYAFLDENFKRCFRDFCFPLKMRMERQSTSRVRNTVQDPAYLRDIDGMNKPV
Chain of human δ opioid receptor (P41143 whole entry): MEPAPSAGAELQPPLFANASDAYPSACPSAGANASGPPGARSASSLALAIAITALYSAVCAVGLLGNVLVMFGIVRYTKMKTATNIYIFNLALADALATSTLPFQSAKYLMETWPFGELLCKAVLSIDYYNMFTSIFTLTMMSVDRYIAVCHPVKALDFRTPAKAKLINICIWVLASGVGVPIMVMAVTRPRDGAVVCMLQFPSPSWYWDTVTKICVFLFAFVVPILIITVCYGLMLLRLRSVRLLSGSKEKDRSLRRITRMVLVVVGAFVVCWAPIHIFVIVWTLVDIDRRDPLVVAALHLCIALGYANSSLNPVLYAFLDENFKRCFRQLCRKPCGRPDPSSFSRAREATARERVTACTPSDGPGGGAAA

For `CC1C2Cc3ccc(C(=O)NCCc4ccc(-c5cccc(N(C)C)c5)cc4)cc3C1(C)CCN2CC1CC1` (centres unmarked) [SJJ-B-074c], the figures for the Ki on human μ opioid receptor, at human κ opioid receptor and at human δ opioid receptor were 0.18 ± 0.055 nM, 0.26 ± 0.022 nM and 2.5 ± 0.17 nM, respectively.

Take `CC1C2Cc3ccc(C(=O)NCCc4ccc(-c5ccc(NC(=O)OC(C)(C)C)cc5)cc4)cc3C1(C)CCN2CC1CC1` (centres unmarked) [SJJ-C-027b]: the Ki (usually the equilibrium dissociation constant of an inhibitor or competing ligand from its target) at human μ opioid receptor amounted to 0.32 ± 0.015 nM; on human κ opioid receptor it was 3.4 ± 0.32 nM; at human δ opioid receptor, 3.1 ± 0.34 nM.

For `C[C@H]1[C@H]2Cc3ccc(O)cc3[C@]1(C)CCN2CC1CC1` [cyclazocine], the “duration of action (antinociception)” value in the experiment on mice is on record as 2 h.

Consider `C[C@H]1C2Cc3ccc(C(N)=O)cc3[C@@]1(C)CCN2CC1CC1` [Example 8-CAC, 8-carboxamidocyclazocine], for which the “duration of action (antinociception)” value in the experiment on mice is 15 h. In addition, the antinociception activity entry in the experiment with mice (studies in vivo) is “high antinociception activity”. In the experiment with guinea pig μ receptors, the “affinity for μ opioid receptors” value is on record as “high affinity”. Further, the “affinity for κ opioid receptors” value in the experiment on κ opioid receptors is “high affinity”.

On to `CC1C2Cc3ccc(C(=O)NCCc4ccc(-c5ccc(CN(C)C)cc5)cc4)cc3C1(C)CCN2CC1CC1` (centres unmarked) [SJJ-C-013b], for which the Ki on human μ opioid receptor stood at 0.094 ± 0.0054 nM; on human κ opioid receptor, 1.9 ± 0.014 nM; at human δ opioid receptor it was 3.7 ± 0.15 nM.

For the compound `CC1C2Cc3ccc(C(=O)NCCc4ccc(-c5ccc(N)cc5)cc4)cc3C1(C)CCN2CC1CC1` (centres unmarked) [SJJ-B-112g], the Ki turned out to be 0.0014 ± 0.0001 nM at human μ opioid receptor, 0.39 ± 0.0085 nM at human κ opioid receptor and 1.5 ± 0.078 nM on human δ opioid receptor.
